The values that follow come from patent US20060263304A1, “Method of controlling alcohol intake and reversing alcohol effects” (priority 2005, published 2006).

This test relates to non-substance dependent individual. The test is described as follows: Case report: Flumazenil nasal spray before business dinners, control of alcohol intake. In kind it is in vivo. The source says: As in the co-pending applications, medication sprays are used to accomplish the above noted tasks. any one of several technologies may be used: • 1) A nasal spray applicator affecting the vein endings in the mucosal membranes of the nasal passage; • 2) A mouth spray affecting the buccal mucosal membrane in the mouth area; • 3) A pulmonary inhaler aerosolization into the lungs; • 4) Any other delivery system that provides direct absorption through mucus membranes directly into the blood stream. For example, the nasal spray may be used by an individual to assist in maintaining control of his or her drinking on a frequent or daily basis because they or their loved ones feel their use of alcohol is excessive. The spray will also act as a behavior trigger to assist in reminding the individual or retraining the individual to mind the frequency, amount or setting of intake of alcohol. In this setting of spray-assisted control of alcohol use there is provided a positive reinforcement of successful moderation, and eventually, the spray assist should no longer be needed. From several hours before, and including even while the individual is already drinking, the user of this nasal spray simply squirts one to three doses into each nostril in order to substantially decrease the total consumption of alcohol at any one drinking session. The duration of the effect will vary from individual to individual. The administration of the spray may be repeated as often as one wishes over the period or course of drinking to achieve the desired results, that is, a reduction in the use of alcohol, whether in total amount or in rapidity of alcohol ingestion. Case Report: A non-substance dependent individual ([…]) used this nasal spray by spraying two squirts of the medication “Flumazenil” into each nostril before business dinners on two separate occasions. Without this medication, their usual pattern was the ingestion of one to two martinis before and at the beginning of the meal, followed by one to two glasses of wine during and after the meal.

In the case of `CCOC(=O)c1ncn2c1CN(C)C(=O)c1cc(F)ccc1-2` [Flumazenil], where the note is “two squirts into each nostril before business dinner, each of two occasions, self-reported”, the “effect of the alcohol on their thinking and feeling” value is “less of an effect on their thinking and feeling than usual”. In addition, the “actual intake of wine” value (two squirts into each nostril before business dinner, each of two occasions, usual pattern without medication one to two glasses of wine) is reported as “less than one glass of wine”. For the same compound, the “actual intake of martini” value (two squirts into each nostril before business dinner, each of two occasions, usual pattern without medication one to two martinis) is “less than one martini”. For the same compound, the “interest in the alcoholic beverages” value (two squirts into each nostril before business dinners, two separate occasions, one individual) is reported as “substantially reduced”.
